Experimental data taken from patent publication US10280179B2, “Spiroquinoxaline derivatives as inhibitors of non-apoptotic regulated cell-death” (Helmholtz Zentrum Munchen—Deutches Forschungszentrum Fur …, priority 2013, dated 2019).
Read-outs that look alike come from different tables or passages of the source.

What was measured:
Type in all cases: cell-based
[1] = test system: human neuroblastoma cell line SH-SY5Y; experiment: Inhibition of BSO-induced non-apoptotic cell death (Example B.1); conditions: SH-SY5Y cells, 72 hours
Source text: Inhibition of BSO-Induced Non-Apoptotic Cell Death by Compounds Disclosed Herein
L-Buthionine sulfoximine (BSO) is a well-known glutathione (GSH) depletory, which inhibits gamma-glutamyl-cysteine-synthetase, the enzyme catalyzing the rate-limiting step in GSH biosynthesis. The human neuroblastoma cell line SH-SY5Y is sensitive to BSO-induced intracellular glutathione depletion, which causes high levels of reactive oxygen species (ROS) and cellular stress mimicking cellular conditions following ischemia (cf., e.g., Yamada et al., Neurochem. Int. 59:1003-9 (2011)).
Compounds disclosed herein were evaluated for their ability to promote cell survival upon administration of a lethal dose of BSO to cell-culture medium. Briefly, SH-SY5Y cells (ATCC® CRL-2266™) were propagated in DMEM supplemented with 10% FBS/1% Penicillin-Streptomycin, and then seeded onto 96-well plates at a concentration of 750 cells/well in 100 μL of media, to which BSO (Sigma Aldrich) was added (to a final concentration of 50 μM) together with increasing concentrations of the compound to be tested, and the plates incubated at 37° C./5% CO2 for 72 hours. Compound dilutions (0.5 pM to 100 μM) were prepared from 10 mM stocks dissolved in DMSO and diluted in media. Cells treated with BSO alone were used as negative control and alpha-Tocopherol (Sigma Aldrich) was used as positive control. Compound concentrations were tested in triplicate. After incubation, cell survival was detected using the live/dead cell assay AquaBluer™ (MultiTarget Pharmaceuticals) and quantified using a fluorescence plate reader (excitation filter: 530-560 nm/emission filter: 590 nm) (SpectraMax M4; Molecular Devices). Fluorescence data so obtained was normalised to the percentage of surviving cells and IC50 values calculated using the GraphPad Prism (GraphPad Software, Inc) software package.

[2] = test system: mouse hippocampal cell line (Ht22); experiment: Inhibition of glutamate-induced non-apoptotic cell death (Example B.2); conditions: HT-22, Ht22 cells
Source text: Inhibition of Glutamate-Induced Non-Apoptotic Cell Death by Compounds of the Present Invention
Glutamate toxicity is conferred on cells from the mouse hippocampal cell line (Ht22) by inhibition of the cysteine/glutamate antiporter, System xc-, leading to impaired cysteine uptake and subsequent GSH depletion. This model is frequently used for mimicking glutathione depletion following oxidative stress in stroke, brain trauma and other neurodegenerative diseases and cellular conditions following ischemia (for example: van Leyen et al, J. Neurochem. 92:824-30 (2005)).
Compounds disclosed herein were evaluated for their ability to promote cell survival upon administration of a lethal dose of glutamate (GLU) to the cell-culture medium.
Briefly, Ht22 cells (ATCC) were propagated DMEM supplemented with 10% FBS/1% Penicillin-Streptomycin, and then seeded onto 96-well plates at a concentration of 2,000 cells/well in 100 μL of MEDIA, simultaneously with glutamate (Sigma Aldrich) to a final concentration of 5 mM, together with increasing concentrations of the compound to be tested (0.5 pM to 100 μM), and the plates incubated at 37° C./5% CO2 for 72 hours. Compound dilutions were prepared from 10 mM stocks dissolved in DMSO and diluted in media. Cells treated with glutamate alone were used as negative control and alpha-tocopherol (Sigma Aldrich) was used as positive control. Compound concentrations were tested in triplicate. After incubation, cell survival was detected and quantified as described in Example B.1.

Pfa1 cells = experiment: Inhibition of non-apoptotic cell death after tamoxifen-induced GPx4 knockout in a recombinant cell line (Example B.4); conditions: Mus musculus, read-out: Pfa1/TAM IC50
Source text: Inhibition of Non-Apoptotic Cell-Death by Compounds Disclosed Herein Using a Recombinant Cell Line
To combat high intracellular ROS levels, mammalian cells have evolved an intricate network of ROS scavenging in cells, in which the thioredoxin and glutathione (GSH) dependent systems prevail. […] Knockout of GPx4 in neurons causes massive neurodegeneration in cortical, cerebellar and hippocampal neurons underscoring the high relevance of ROS-induced cell death signaling in the brain. Briefly, immortalised fibroblasts from these mice were made to contain tamoxifen-inducible CreERT2, which catalyzes the functional ablation of both copies of GPx4 and resulting in a complete knockout of GPx4, a massive ROS burst, and cell death in cell culture. These cells (Pfa1 cells) were used to characterize compounds of the present invention, whereby tamoxifen (TAM) was given on day 0 along with the compound under test, and 72 hours later cell survival was evaluated using AlamarBlue.

[3] = Cellular toxicity, same assay as Example B.4 without TAM (Example B.5); conditions: mouse; Pfa1 cells without TAM; read-out: TC50 (the source's name)
Source text: Cellular Toxicity of Compounds of the Invention
An estimate of the toxicity for compounds of the invention was obtained by using the same assay as described in Example B.4, but without the addition of TAM. […] Such TC50 values obtained for certain compounds disclosed herein, together with an approximate therapeutic window (estimated by dividing each TC50 by the corresponding IC50 determined from example B.4) are shown in Table 3.

[4] = 50 μM BSO, read-out: SH-SY5Y/BSO IC50
[5] = glutamate-induced cell death, read-out: Ht22/GLU

| Compound | IC50 [1, 4] [nM] | IC50 [2, 5] [nM] | IC50 (Pfa1 cells) [nM] | CC50 [3] [nM] | IC50 ([1]; BSO 50 μM, cell survival (AquaBluer), read-out: SH-SY5Y/BSO (Example B.1) IC50) [nM] | IC50 ([2]; glutamate 5 mM, 72 hours, cell survival, read-out: Ht22/GLU (Example B.2) IC50) [nM] |
| --- | --- | --- | --- | --- | --- | --- |
| Clc1cccc(CNC2=Nc3cc4c(cc3NC23CCCCC3)OCCO4)c1 [C-227] | < 500 | < 1000 | < 50 | 20000 to 50000 |  |  |
| Clc1ccc(CNC2=Nc3ccccc3NC23CCCCC3)cc1Cl [C-228] | < 50 | < 500 | < 50 | 20000 to 50000 |  |  |
| CC(=O)NC1CCC2(CC1)Nc1ccccc1N=C2NCc1ccccc1 (centres unmarked) [C-249] | < 1000 | < 5000 | < 5000 | 50000 to 100000 |  |  |
| CC1CCC2(CC1)Nc1ccccc1N=C2NCc1ccccc1 (centres unmarked) [C-252] | < 200 | < 1000 | < 1000 | 10000 to 20000 |  |  |
| CC1(C)CCC2(CC1)Nc1ccccc1N=C2NCc1ccccc1 [C-253] | < 100 | < 1000 | < 1000 | 10000 to 20000 |  |  |
| FC(F)(F)c1cccc2c1N=C(NCc1ccccc1)C1(CCCCC1)N2 [C-254] | < 50 | < 500 | < 500 | 5000 to 10000 |  |  |
| Cc1cc2c(cc1C)NC1(CCCCCC1)C(NCc1cccc(Cl)c1)=N2 [C-255] | < 50 | < 200 | < 200 | 5000 to 10000 |  |  |
| FC1(F)Oc2cc3c(cc2O1)NC1(CCCCC1)C(NCc1ccccc1)=N3 [C-256] | < 50 | < 200 | < 100 | 20000 to 50000 |  |  |
| NC1CCC2(CC1)Nc1ccccc1N=C2NCc1ccccc1 (centres unmarked) [C-257] | < 100 | < 500 | < 200 | 2000 to 5000 |  |  |
| Clc1ccc2c(c1)N=C(NCc1ccccc1)C1(CCCCC1)N2 [C-258] | < 50 | < 500 | < 200 | 10000 to 20000 |  |  |
| FC(F)(F)c1ccc2c(c1)N=C(NCc1ccccc1)C1(CCCCC1)N2 [C-259] | < 100 | < 500 | < 500 | 5000 to 10000 |  |  |
| FC(F)(F)c1cccc(CNC2=Nc3cc(Cl)c(Cl)cc3NC23CCCCCC3)c1 [C-260] | < 50 | < 500 | < 200 | 5000 to 10000 |  |  |
| FC(F)(F)c1cccc(CNC2=Nc3ccccc3NC23CCCCCC3)c1 [C-261] | < 50 | < 500 | < 500 | 10000 to 20000 |  |  |
| Cc1cc(C)cc(CNC2=Nc3cc(Cl)c(Cl)cc3NC23CCCCCC3)c1 [C-262] | < 100 | < 500 | < 500 | 10000 to 20000 |  |  |
| Cc1cccc2c1NC1(CCCCC1)C(NCc1ccccc1)=N2 [C-263] | < 50 | < 500 | < 500 | 10000 to 20000 |  |  |
| FC(F)(F)c1cccc(CNC2=Nc3cc(Cl)c(Cl)cc3NC23CCCCC3)c1 [C-264] | < 50 | < 500 | < 500 | 10000 to 20000 |  |  |
| Fc1ccc(CNC2=Nc3cc(Cl)c(Cl)cc3NC23CCCCC3)c(F)c1 [C-265] | < 50 | < 500 | < 500 | 10000 to 20000 |  |  |
| Fc1cccc(F)c1CNC1=Nc2ccccc2NC12CCCCCC2 [C-266] | < 100 | < 500 | < 500 | 10000 to 20000 |  |  |
| Cc1cccc(CNC2=Nc3cc(Cl)c(Cl)cc3NC23CCCCCC3)c1 [C-267] | < 100 | < 500 | < 200 | 10000 to 20000 |  |  |
| Clc1ccc(CNC2=Nc3ccccc3NC23CCNCC3)cc1 [N-3] | < 50 | < 50 | < 10 | 5000 to 10000 |  |  |

| Compound | IC50 [1, 4] [nM] | IC50 [2, 5] [nM] | IC50 (Pfa1 cells) [nM] | CC50 [3] [nM] | IC50 ([1]; BSO 50 μM, cell survival (AquaBluer), read-out: SH-SY5Y/BSO (Example B.1) IC50) [nM] | IC50 ([2]; glutamate 5 mM, 72 hours, cell survival, read-out: Ht22/GLU (Example B.2) IC50) [nM] |
| --- | --- | --- | --- | --- | --- | --- |
| Cc1ccccc1CNC1=Nc2ccccc2NC12CCNCC2 [N-10] | < 20 | < 50 | < 100 | 5000 to 10000 | ~5 | 10 to 50 |
| FC(F)(F)c1cccc(CNC2=Nc3ccccc3NC23CCNCC3)c1 [N-23] | < 20 | < 50 | < 50 | 20000 to 50000 |  |  |
| Fc1cc(Cl)ccc1CNC1=Nc2ccccc2NC12CCNCC2 [N-61] | < 50 | < 50 | < 50 | 20000 to 50000 |  |  |
| CN1CCC2(CC1)Nc1ccccc1N=C2NCc1cccc(Cl)c1 [N-90] | < 50 | < 200 | < 20 | 10000 to 20000 |  |  |
| CC(=O)N1CCC2(CC1)Nc1ccccc1N=C2NCc1cccc(Cl)c1 [N-99] | < 200 | < 1000 | < 1000 | 50000 to 100000 |  |  |
| Fc1cc2c(cc1F)NC1(CCNCC1)C(NCc1cccc(Cl)c1)=N2 [N-117] | < 10 | < 50 | < 50 | 1000 to 2000 |  |  |
| CN1CCC2(CC1)Nc1ccccc1N=C2NCc1ccccc1 [N-204] | < 50 | < 500 | < 500 | 20000 to 50000 |  |  |
| Clc1cc2c(cc1Cl)NC1(CCNCC1)C(NCc1ccccc1)=N2 [N-205] | < 20 | < 50 | < 10 | 1000 to 2000 |  |  |
| Cc1cc2c(cc1C)NC1(CCNCC1)C(NCc1ccccc1)=N2 [N-210] | < 50 | < 50 | < 10 | 2000 to 5000 |  |  |
| Cc1cc(C)cc(CNC2=Nc3ccccc3NC23CCNCC3)c1 [N-217] | < 50 | < 50 | < 100 | 20000 to 50000 |  |  |
| Clc1cccc(CNC2=Nc3cc4c(cc3NC23CCNCC3)OCCO4)c1 [N-219] | < 500 | < 1000 | < 1000 | 20000 to 50000 |  |  |
| c1ccc(C(CNC2=Nc3ccccc3NC23CCNCC3)c2ccccc2)cc1 [N-220] | < 50 | < 20 | < 50 | 2000 to 5000 |  |  |
| Fc1cc2c(cc1F)NC1(CCNCC1)C(NCc1ccccc1)=N2 [N-223] | < 50 | < 50 | < 50 | 20000 to 50000 |  |  |
| CN1CCC2(CC1)Nc1cc(Cl)c(Cl)cc1N=C2NCc1ccccc1 [N-230] | < 10 | < 10 | < 10 | 500 to 1000 |  |  |
| Fc1cccc(F)c1CNC1=Nc2ccccc2NC12CCNCC2 [N-231] | < 100 | < 50 | < 50 | 10000 to 20000 |  |  |
| CC1CC2(CCN1)Nc1ccccc1N=C2NCc1cccc(Cl)c1 (centres unmarked) [N-239] | < 50 | < 200 | < 1000 | 5000 to 10000 |  |  |
| CC1CC2(CCN1)Nc1ccccc1N=C2NCc1ccccc1 (centres unmarked) [N-240] | < 100 | < 500 | < 500 | 10000 to 20000 |  |  |
| Cc1cc2c(cc1C)NC1(CCNCC1)C(NCc1cccc(C(F)(F)F)c1)=N2 [N-251] | < 10 | < 50 | < 100 | 500 to 1000 |  |  |
| CC1CN(C)CCC12Nc1ccccc1N=C2NCc1ccccc1 (centres unmarked) [N-256] | < 50 | < 500 | < 500 | 10000 to 20000 |  |  |
